Series [1] is described as follows: Pour point, determined visually. Format: physicochemical. As to the method: The useful liquid range of a perfluorinated 1-alkoxypropene compound of the present disclosure is between its pour point and its boiling point. A pour point is the lowest temperature at which the compound is still able to be poured. The pour point can be determined, for example, by ASTM D97-16 “Standard Test Method for Pour Point of Petroleum Products.” In one embodiment, the compounds of the present disclosure have a pour point of less than −100° C., less than −120° C., less than −130° C., or less than −140° C. Pour Point can be measured by placing a sealed glass vial containing 3 mL of the fluid into a refrigerated bath, adjusting temperature incrementally and checking for pouring. Pouring is defined as visible movement of the material during a five second count. This criterion is specified in ASTM D97-16.
One to two milliliters of the sample were placed in a vial and cooled in a bath until it solidified. The sample was then allowed to warm slowly in the bath and observed every 3-5° C.

Series [2] in a line: Thermal stability with absorbents, GC-FID purity. The series is classed as physicochemical. As to the method: The thermal stability was measured by charging 1.0 g of Preparatory Example 2 into glass vials and then adding 0.10 g of absorbent. The samples were stirred for 24 h at 50° C. and then analyzed by GC-FID for decomposition and purity changes.
A short description of series [3]: Dielectric constant, ASTM D150-11. Format: physicochemical. As to the method:
(§1) Dielectric breakdown strength and dielectric constant were measured for PE-1, PE-2, CE-1 to CE-4. The dielectric constants presented in Table 7, below, were measured using the broadband Novocontrol Dielectric Spectrometer per ASTM D150-11. The dielectric breakdown strengths presented in Table 7 were measured according to ASTM D877-13, Procedure A, with the following modification: spacing between the electrodes was 2.54 mm and rate of rise was 500 V/sec.

A short description of series [4]: Dielectric breakdown strength, ASTM D877-13 Procedure A. The series is classed as physicochemical. The note with it: electrode spacing 2.54 mm, rate of rise 500 V/sec. The protocol: as §1
The nature of series [5]: Boiling point, ASTM D1120-94. The series is classed as physicochemical. Conditions: temperature at 760 mmHg. The protocol: Vapor Pressure was measured using the stirred-flask ebulliometer method described in ASTM E1719-97 “Vapor Pressure Measurement by Ebulliometry.” This method is also referred to as “Dynamic Reflux.” The boiling point was measured using ASTM D1120-94 “Standard Test Method for Boiling Point of Engine Coolants.” The method used a 50-mL glass round-bottom flask. Vacuum was measured and controlled using a vacuum controller available from J-KEM Scientific, Inc., St. Louis, Mo., USA. The pressure transducer was calibrated on the day of measurement by comparison with full vacuum and with an electronic barometer located in the same laboratory. The procedure was carried out by slowly heating the material, then applying vacuum until boiling occurred and a steady dropwise reflux rate was established. Pot temperature and pressure reading were recorded, then the vacuum controller was set for a higher absolute pressure and the material was heated further until a new reflux point was established. The pressure level was raised in increments until the vapor pressure curve was obtained up to the atmospheric boiling point.
The boiling point of PE-1 is 60.1° C., which is the temperature at 760 mmHg. The boiling point of PE-2 is 88.1° C., which is the temperature at 760 mmHg.

Another series relates to rats. In words: Toxicity screening study in rats, 4 h inhalation LC-50. Format: in vivo. The protocol:
MA-3 (50 g, 160 mmol) was charged to a 3-neck flask equipped with a water-cooled condenser and magnetic stir bar. SbF5 was then added dropwise to the stirring MA-3 and a large exotherm was observed. The resultant reaction mixture was allowed to stir at room temperature for 1 h. GC-FID analysis of the reaction mixture indicated complete consumption of the MA-3 starting material. Water was then added to the mixture with stirring. The fluorous phase was collected and distilled by concentric tube distillation (59° C., 740 mmHg, 98.7 kPa) affording the desired MP-3 (41.2 g, 82% yield) as a colorless liquid. Both E- and Z-isomers were obtained as a mixture. […] The structure was confirmed by GC-MS and ^19F NMR analyses to be that of the desired product.

Each structure is given as a SMILES string.

On to `FC(OC(F)(F)C(F)(F)C(F)(F)OC(F)(F)F)=C(F)C(F)(F)F` [PE-2, 1,2,3,3,3-pentafluoro-1-(1,1,2,2,3,3-hexafluoro-3-(trifluoromethoxy)propoxy)prop-1-ene], for which, in series [1], the Pour point is −140 °C. Besides, the “Purity (%)” value in series [2] (4 Angstrom Molecular Sieves, 24 h at 50° C.) amounted to 99.5%; in series [2] (Activated Carbon, 24 h at 50° C.), 99.5%; in series [2] (Basic Alumina, 24 h at 50° C.), 99.5%; in series [2] (K2CO3, 24 h at 50° C.), 99.3%; in series [2] (No Absorbent, 24 h at 50° C.) it was 99.5%; in series [2] (Silica Gel, 24 h at 50° C.) it was 99.4%. Moreover, the “Dielectric Constant (measured at 1 kHz)” value in series [3] is 2.04. Moreover, in series [4], the “Dielectric Breakdown Voltage” value is reported as >60 kV. In series [5], this molecule had a Boiling point of 88.1 °C.
For `FC(F)=C(F)C(F)(F)OC(F)(F)C(F)(F)C(F)(F)F` [MA-3, 1,1,2,3,3-pentafluoro-3-(perfluoropropoxy)prop-1-ene, reference compound], the “Dielectric Constant (measured at 1 kHz)” value in series [3] is on record as 2.37. Also, the “Dielectric Breakdown Voltage” value in series [4] is listed as 30.7 kV.
For `FC(F)=C(F)C(F)(F)OC(F)(F)C(F)(F)C(F)(F)OC(F)(F)F` [MA-31, 1,1,2,3,3-Pentafluoro-3-(1,1,2,2,3,3-hexafluoro-3-(trifluoromethoxy)propoxy)prop-1-ene, reference compound], the “Dielectric Constant (measured at 1 kHz)” value in series [3] was 2.37. In series [4], the “Dielectric Breakdown Voltage” value was determined as 39.4 kV.
For `FC(OC(F)(F)C(F)(F)C(F)(F)F)=C(F)C(F)(F)F` [PE-1, 1,2,3,3,3-pentafluoro-1-(perfluoropropoxy)prop-1-ene], in series [1], the Pour point is −145 °C. The “Dielectric Constant (measured at 1 kHz)” value in series [3] is given as 2.04. Besides, in series [4], the “Dielectric Breakdown Voltage” value is 41.7 kV. The “4 h inhalation LC-50” value with rats is reported as “greater than 10,000 ppm”. In series [5], this molecule showed a Boiling point of 60.1 °C.

Values taken from patent US11673861B2, “Perfluorinated 1-alkoxypropenes, compositions, and methods and apparatuses for using same” (priority 2017, dated 2023).
